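Protocol summary: plate cells (96-well), add compound at 5 concentrations, incubate 48 h, interpolate endpoints linearly. GI50 is the concentration that inhibits growth by half. The concentration for full growth arrest is given as TGI.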
Experiments:
Assay in all cases: NCI tumour cell line growth inhibition, 48 h
M14 melanoma = system: M14 melanoma
NCI-H460 lung = system: NCI-H460 lung
UO-31 renal = system: UO-31 renal
NCI-H23 lung = system: NCI-H23 lung
NCI-H226 lung = system: NCI-H226 lung
UACC-257 melanoma = system: UACC-257 melanoma
MALME-3M melanoma = system: MALME-3M melanoma
SK-OV-3 ovarian = system: SK-OV-3 ovarian
MDA-MB-231 breast = system: MDA-MB-231 breast
DU-145 prostate = system: DU-145 prostate

Structure (SMILES) | TGI (M14 melanoma) | TGI (NCI-H460 lung) | TGI (UO-31 renal) | TGI (NCI-H23 lung) | TGI (NCI-H226 lung) | TGI (UACC-257 melanoma) | TGI (MALME-3M melanoma) | TGI (SK-OV-3 ovarian) | GI50 (M14 melanoma) | GI50 (NCI-H460 lung) | GI50 (UO-31 renal) | GI50 (MDA-MB-231 breast) | TGI (MDA-MB-231 breast) | GI50 (DU-145 prostate) | TGI (DU-145 prostate) | GI50 (NCI-H23 lung) | GI50 (NCI-H226 lung) | GI50 (UACC-257 melanoma) | GI50 (MALME-3M melanoma) | GI50 (SK-OV-3 ovarian)
O=S(=O)(NCn1ccc2ccccc21)c1ccccc1 | > 100 µM | > 100 µM | > 100 µM | > 100 µM | > 100 µM | > 100 µM | > 100 µM | > 100 µM | – | – | – | – | – | – | – | – | – | – | – | –
O=c1cc(N/N=C/c2ccc(F)cc2)c2cc(Cl)ccc2[nH]1 | > 100 µM | > 100 µM | > 100 µM | 76.1 µM | > 100 µM | 56.5 µM | 54 µM | 83.4 µM | 10.2 µM | 20.3 µM | 21.9 µM | 16 µM | 51.7 µM | 33.9 µM | > 100 µM | 19.5 µM | 14.6 µM | 15.5 µM | 14.2 µM | 20.1 µM
O=C(O)CCNCCCCNCCC(=O)O | > 100 µM | > 100 µM | – | > 100 µM | > 100 µM | – | > 100 µM | > 100 µM | – | – | – | – | – | – | – | – | – | – | – | –
C=CCO/N=C(\OC(=O)c1ccc([N+](=O)[O-])cc1)c1ccccc1 | > 100 µM | > 100 µM | > 100 µM | > 100 µM | > 100 µM | – | > 100 µM | > 100 µM | – | – | – | – | – | – | – | – | – | – | – | –
C=CCC1=C(C)C[C@@H]2CCC(=O)C=C12 | > 100 µM | > 100 µM | > 100 µM | > 100 µM | – | > 100 µM | > 100 µM | > 100 µM | – | – | – | – | – | – | – | – | – | – | – | –
CC1=Nc2ccccc2/C1=C\c1c(C)[nH]c2ccccc12 | > 100 µM | 44.6 µM | 27.5 µM | 38.6 µM | 33.2 µM | 30.3 µM | 30.5 µM | 51.8 µM | – | – | – | – | 33.3 µM | – | 31.2 µM | – | – | – | – | –
CSCCCNC(=O)c1ccc2c(c1)/C(=C/c1[nH]c(C)cc1C)C(=O)N2 | > 100 µM | > 100 µM | > 100 µM | > 100 µM | > 100 µM | > 100 µM | > 100 µM | 62.8 µM | 0.284 µM | 0.872 µM | 0.347 µM | 2.87 µM | > 100 µM | 0.7 µM | > 100 µM | 1.59 µM | 2.24 µM | 4.67 µM | 0.597 µM | 0.366 µM
CC1CCSC(N(C(=O)N(C)c2ccccc2)c2ccccc2)=N1 (configuration not stated) | > 100 µM | > 100 µM | > 100 µM | > 100 µM | > 100 µM | > 100 µM | > 100 µM | > 100 µM | – | – | – | – | – | – | – | – | – | – | – | –
N.N.N.N.N.O=[N+]([O-])[O-].[Co+3].[O-][Cl+3]([O-])([O-])[O-] | > 100 µM | > 100 µM | > 100 µM | > 100 µM | – | > 100 µM | > 100 µM | > 100 µM | > 100 µM | > 100 µM | > 100 µM | – | – | – | – | > 100 µM | – | > 100 µM | > 100 µM | > 100 µM
CC(C)CCCC(C)[C@H]1CCC2[C@@H]3CCC4Nc5c(cnn5-c5ccccc5)C[C@]4(C)C3CC[C@@]21C (some centres not stated) | > 100 µM | > 100 µM | 50.4 µM | > 100 µM | > 100 µM | > 100 µM | > 100 µM | > 100 µM | – | – | – | – | – | – | – | – | – | – | – | –
COc1ccc(CCn2c(=O)c3ccccc3n(C)c2=O)cc1 | > 100 µM | > 100 µM | > 100 µM | > 100 µM | – | > 100 µM | > 100 µM | > 100 µM | – | – | – | – | – | – | – | – | – | – | – | –
CCOC(=O)N1CCc2cc(OC)c(OC)cc2/C1=C\c1ccc(OC)c(OC)c1 | > 10 µM | – | 69.5 µM | > 100 µM | 61.2 µM | 53.8 µM | 57.1 µM | > 100 µM | – | – | – | – | – | – | – | – | – | – | – | –
NNC(=O)C(=O)N/N=C1\CCC(=O)CC1C(=O)CCC(=O)Nc1ccc(Cl)cc1 (configuration not stated) | > 100 µM | > 100 µM | > 100 µM | > 100 µM | > 100 µM | > 100 µM | > 100 µM | > 100 µM | – | – | – | – | – | – | – | – | – | – | – | –
COC(=O)CC(NC(=O)OCc1ccccc1)C(C(=O)OCc1ccccc1)C(C)(OC)OC (configuration not stated) | > 100 µM | 80.2 µM | 68.7 µM | 74.7 µM | 97.5 µM | 85.6 µM | 80.9 µM | – | – | – | – | – | – | – | – | – | – | – | – | –
COc1ccc(C(=O)C(CC2C(=O)NC(=O)NC2=O)c2ccc(OC)cc2)cc1 (configuration not stated) | > 100 µM | > 100 µM | > 100 µM | > 100 µM | > 100 µM | > 100 µM | > 100 µM | > 100 µM | – | – | – | – | – | – | – | – | – | – | – | –
CC(=O)O[C@]1(C)OC(=O)[C@@H](CC(C)C)N1[N+](=O)[O-] | > 100 µM | > 100 µM | > 100 µM | > 100 µM | > 100 µM | > 100 µM | > 100 µM | > 100 µM | – | – | – | – | – | – | – | – | – | – | – | –
Cc1cccc(C)c1NC(=O)CCc1nc(=S)[nH][nH]1 | > 100 µM | > 100 µM | > 100 µM | > 100 µM | > 100 µM | – | > 100 µM | > 100 µM | – | – | – | – | – | – | – | – | – | – | – | –
CC(C)OP(=O)(OC(C)C)/C(N)=N/Nc1ccc([N+](=O)[O-])cc1 | > 100 µM | > 100 µM | > 100 µM | > 100 µM | > 100 µM | > 100 µM | > 100 µM | – | – | – | – | – | – | – | – | – | – | – | – | –
Cc1ccc(S(=O)(=O)c2ccccc2[N+](=O)[O-])cc1 | > 100 µM | > 100 µM | > 100 µM | > 100 µM | > 100 µM | > 100 µM | > 100 µM | > 100 µM | – | – | – | – | – | – | – | – | – | – | – | –
CN(C)CCSS(=O)(=O)O | > 100 µM | 34.7 µM | > 100 µM | > 100 µM | > 100 µM | – | > 100 µM | > 100 µM | – | – | – | – | > 100 µM | – | > 100 µM | – | – | – | – | –
Cc1cc(N(CCC#N)CCC#N)ccc1N=Nc1ccc(Br)cc1 | > 66 µM | > 100 µM | > 57.6 µM | > 51.3 µM | > 46.5 µM | > 100 µM | > 100 µM | 11.7 µM | – | – | – | – | – | – | – | – | – | – | – | –
N/N=C1\C(=O)N(c2ccc(Cl)cc2Cl)C(=O)C(=O)C1c1nc2ccccc2o1 (configuration not stated) | > 100 µM | > 100 µM | > 100 µM | > 100 µM | > 100 µM | > 100 µM | > 100 µM | > 100 µM | – | – | – | – | – | – | – | – | – | – | – | –
C[Si](C)(C)/C=C\CCO | > 100 µM | > 100 µM | > 100 µM | > 100 µM | – | > 100 µM | > 100 µM | > 100 µM | – | – | – | – | – | – | – | – | – | – | – | –
